# In patent publication US8673265B2, “Carbonylporphyrins and uses thereof” (Brookhaven Science Associates, LLC, priority 2006, dated 2014):
# Experiments:
# [1] = system: EMT-6 mammary carcinomas; experiment: Biodistribution (boron concentrations in tissues) in mice bearing EMT-6 carcinomas; assay type: in vivo, BALB/c mice; conditions: for Average boron concentration, Blood / Average boron concentration, Brain / Average boron concentration, Heart / Average boron concentration, Kidneys / Average boron concentration, Liver / Average boron concentration, Skin (pinna) / Average boron concentration, Spleen / Average boron concentration, Tumor / Average boron concentration, Feces / Average boron concentration, Lungs: 3 i.p. injections over 8 hours
# Protocol: BALB/c mice bearing subcutaneously implanted EMT-6 mammary carcinomas implanted on the dorsal thorax were given a total dose of 105 milligrams porphyrin compound V per kilogram body weight (23.7 mg B/kg). At one and two days after the last injection, mice were euthanized, and tumor, blood, brain, and liver were removed for boron analyses. The blood was first analyzed for hematologic parameters that indicate toxicity before it was analyzed for boron.
# Similar to Example 8, Compound VII was given, to tumor-bearing mice except at a slightly higher total dose of 143 mg/kg body weight in 3 i.p. injections given over a period of 8 hours.
# [2] = Weight changes and hematologic parameters in mice; assay type: in vivo, BALB/c mice
# [3] = 105 mg/kg (23.7 mg B/kg), 1 day after last injection
# [4] = 105 mg/kg (23.7 mg B/kg), 2 days after last injection
# [5] = 143 mg/kg (30 mg B/kg), 1 day after last injection
# [6] = 143 mg/kg (30 mg B/kg), 2 days after last injection
substance,measurement,setting,value
"Copper (II) 5,15-dinitro-10,20-bis(3-[o-carboranylmethoxy]phenyl)porphyrin [Porphyrin compound V]","Average boron concentration, Blood",[1]; [3],34.6 ± 26.9 μg B/g
same,"Average boron concentration, Brain",[1]; [3],0.5 ± 0.4 μg B/g
same,"Average boron concentration, Heart",[1]; [3],9.1 ± 3.8 μg B/g
same,"Average boron concentration, Kidneys",[1]; [3],12.7 ± 6.9 μg B/g
same,"Average boron concentration, Liver",[1]; [3],145 ± 18 μg B/g
same,"Average boron concentration, Skin (pinna)",[1]; [3],3.6 ± 13.0 μg B/g
same,"Average boron concentration, Spleen",[1]; [3],76.1 ± 8.6 μg B/g
same,"Average boron concentration, Tumor","[1]; 105 mg/kg (23.7 mg B/kg), 1 day after last injection, wet tissue",39.2 ± 14.4 μg B/g
same,"Average boron concentration, Blood",[1]; [4],1.5 ± 0.4 μg B/g
same,"Average boron concentration, Brain",[1]; [4],0.1 ± 0.1 μg B/g
same,"Average boron concentration, Feces",[1]; [4],15.2 ± 20.8 μg B/g
same,"Average boron concentration, Heart",[1]; [4],7.5 ± 0.6 μg B/g
same,"Average boron concentration, Kidneys",[1]; [4],7.1 ± 0.5 μg B/g
same,"Average boron concentration, Liver",[1]; [4],226 ± 25 μg B/g
same,"Average boron concentration, Lungs",[1]; [4],8.5 ± 3.0 μg B/g
same,"Average boron concentration, Skin (pinna)",[1]; [4],4.8 ± 1.6 μg B/g
same,"Average boron concentration, Spleen",[1]; [4],158 ± 19 μg B/g
same,"Average boron concentration, Tumor",[1]; [4],49.8 ± 12.9 μg B/g
same,amount of boron delivered to the tumor,[1]; porphyrin dose ~100 mg/kg (24 mg/kg B),~50 ppm
same,percentage of injected dose in tumor per gram of wet tissue,"[1]; ~100 mg/kg (24 mg/kg B), EMT-6 tumor model",~10.5 %/g
same,% Weight change,[2]; [3],−0.8 ± 1.8%
same,Platelet count,[2]; [3],1349 ± 294 m/m^3
same,White blood count,[2]; [3],9.9 ± 2.6 m/m^3
same,% Weight change,[2]; [4],−1.7 ± 1.7%
same,Platelet count,[2]; [4],515 ± 160 m/m^3
same,White blood count,[2]; [4],11.8 ± 1.8 m/m^3
"copper (II) 5,15-dibromo-10,20-bis(3-[o-carboranylmethoxy]phenyl)porphyrin [Porphyrin compound VII]","Average boron concentration, Blood",[1]; [5],105 ± 20 μg B/g
same,"Average boron concentration, Brain",[1]; [5],1.9 ± 0.5 μg B/g
same,"Average boron concentration, Feces",[1]; [5],11.2 ± 2.3 μg B/g
same,"Average boron concentration, Heart",[1]; [5],20.4 ± 4.6 μg B/g
same,"Average boron concentration, Kidneys",[1]; [5],38.7 ± 7.0 μg B/g
same,"Average boron concentration, Liver",[1]; [5],183 ± 19 μg B/g
same,"Average boron concentration, Lungs",[1]; [5],35.8 ± 3.7 μg B/g
same,"Average boron concentration, Skin (pinna)",[1]; [5],9.2 ± 1.8 μg B/g
same,"Average boron concentration, Spleen",[1]; [5],107 ± 11 μg B/g
same,"Average boron concentration, Tumor",[1]; [5],67.1 ± 8.5 μg B/g
same,"Average boron concentration, Blood",[1]; [6],12.1 ± 9.7 μg B/g
same,"Average boron concentration, Brain",[1]; [6],0.1 ± 0.2 μg B/g
same,"Average boron concentration, Feces",[1]; [6],4.9 ± 0.6 μg B/g
same,"Average boron concentration, Heart",[1]; [6],9.4 ± 1.1 μg B/g
same,"Average boron concentration, Kidneys",[1]; [6],13.0 ± 3.6 μg B/g
same,"Average boron concentration, Liver",[1]; [6],263 ± 34 μg B/g
same,"Average boron concentration, Lungs",[1]; [6],17.8 ± 6.2 μg B/g
same,"Average boron concentration, Skin (pinna)",[1]; [6],7.7 ± 1.7 μg B/g
same,"Average boron concentration, Spleen",[1]; [6],160 ± 15 μg B/g
same,"Average boron concentration, Tumor",[1]; [6],76.9 ± 14.1 μg B/g
same,% Weight change,[2]; [5],−0.3 ± 1.4%
same,Platelet count,[2]; [5],1461 ± 229 m/m^3
same,White blood count,[2]; [5],8.8 ± 1.3 m/m^3
same,% Weight change,[2]; [6],0.2 ± 2.2%
same,Platelet count,[2]; [6],790 ± 227 m/m^3
same,White blood count,[2]; [6],11.8 ± 1.8 m/m^3
same,toxicity associated with the porphyrin,[2]; 143 mg/kg dose,little if any toxicity
